Source: patent publication US20170112896A1, “SMALL MOLECULE RAC OR RHO INHIBITORS” (Ohio State Innovation Foundation, priority 2014, published 2017)
Square brackets hold non-standard residues; d marks the D form. Peptide text beside a SMILES is read from it. * marks the point of attachment. Lys(5-FITC)NH2 = NC(=O)[C@H](CCCCNC(=S)Nc1ccc2c(c1)C(=O)OC21c2ccc(O)cc2Oc2cc(O)ccc21)N*; Phe(3,4-F2) = N[C@@H](Cc1ccc(F)c(F)c1)C(=O)O; Phe(4-F) = N[C@@H](Cc1ccc(F)cc1)C(=O)O; d2Nal = N[C@H](Cc1ccc2ccccc2c1)C(=O)O; NMeL = CN[C@@H](CC(C)C)C(=O)O; Tle = CC(C)(C)[C@H](N)C(=O)O; dNle = CCCC[C@@H](N)C(=O)O; Abu = CC[C@H](N)C(=O)O

How the values were obtained:
K-Ras(G12V) = target: T1, K-Ras(G12V) (Homo sapiens, UniProt P01116, G12V); experiment: Fluorescence anisotropy (FA) binding of FITC-labeled cyclic peptides to K-Ras; conditions: Table 1, resynthesized FITC-labeled library hits, read-out: KD (μM), affinity for K-Ras
T1 construct: The G12V mutant K-Ras (amino acids 1-185) was recombinantly fused to glutathione 5-transferase (GST) at its N-terminus; GST (N, cleaved yes); made in house; host or cells: Escherichia coli BL21
Procedure: The cells were grown at 37° C. in Luria broth supplemented with 0.05 mg/mL kanamycin to an OD600 of 0.6 when protein expression was induced by addition of IPTG for a final concentration of 1 mM. After 5 h of incubation at 30° C., the cells were harvested by centrifugation. The cell pellets were lysed by sonication in a lysis buffer (40 mM Tris-HCl, 150 mM NaCl, 0.5% Triton X-100, 5 mM (3-mercaptoethanol, pH 8.0) containing a protease inhibitor cocktail tablets (Sigma). The crude cell lysate was loaded onto a glutathione-Sepharose 4B column (GE Healthcare) and the bound GST-K-Ras was eluted with an elution buffer (50 mM Tris, pH 8.0, 10 mM glutathione). After buffer exchange into PBS, the protein was quickly frozen and stored at −80° C. To generate K-Ras without the GST tag, the GST-K-Ras protein (2 mg in PBS) was treated with 20 units of thrombin (GE Healthcare) for 16 h at 4° C. The reaction mixture was passed through a glutathione-Sepharose 4B column to remove the released GST and the resulting K-Ras protein was stored at −80° C.
For cyclic peptides derived from single library beads (library screening), K-Ras protein (non-GST fusion, 0-20 μM) was incubated with the TMR-labeled peptide (50 or 100 nM) in 20 μL, of the blocking buffer for 2.5 h at 24° C. The FA values were measured on a Molecular Devices Spectramax M5 spectrofluorimeter, with excitation and emission wavelengths at 545 and 585 nm, respectively. Equilibrium dissociation constants (KD) were determined by plotting the FA values as a function of K-Ras concentration and fitting the data to the equation
where Y is the measured anisotropy at a given K-Ras concentration x; L is the peptide concentration; Qb/Qf is the correction fact for dye-protein interaction; Amax is the maximum anisotropy at saturating K-Ras concentration; and Amin is the minimum anisotropy. FA analyses with resynthesized FITC-labeled peptides were similarly carried oμL, except that the excitation and emission wavelengths were at 494 and 520 nm, respectively.

[1] = target: T2, Ras(G12V)-Raf RBD interaction (Homo sapiens, UniProt P01116, G12V); experiment: HTRF assay, inhibition of Ras-Raf RBD interaction; type: binding; conditions: for increase of Ras binding affinity by substitution: relative to parent 9A5/9A6
T2 construct: The G12V mutant K-Ras (amino acids 1-185) was recombinantly fused to glutathione 5-transferase (GST) at its N-terminus; GST (N, cleaved yes); made in house; host or cells: Escherichia coli BL21
Procedure: Recombinant HA-tagged K-Ras (no GST, 50 nM), GST-Raf RBD (50 nM each), a monoclonal anti-HA antibody labeled with acceptor d2 (2 μg/mL), a monoclonal anti-GST antibody labeled with donor Tb (0.25 μg/mL) (Cisbio), and increasing concentrations of cyclic peptide (0-20 μM) were mixed in PBS (total volume of 20 μL) in a 384-well plate. The plate was incubated overnight at 4° C. and the HTRF signal was measured on a Molecular Devices Spectramax M5 or a Tecan infinite M1000 Pro plate reader. The data were analyzed by Prism 6.0 from Graphpad Software, Inc. (La Jolla, Calif.) and IC50 values were obtained by fitting the data to dose-response-inhibition curve.

H1299 lung cancer cells = type: cell-based; conditions: for IC50: 72 h; for anti-proliferative activity against lung cancer cells (in words): MTT assay
Procedure: MTT assays (Mosmann, T. (1983) J. Immunol. Methods 65:55) were performed with H1299 lung cancer cells. One hundred μL of H1299 cells (0.5×10^5 cells/mL) were seeded in each well of a 96-well culture plate and allowed to grow overnight in Advanced RPMI medium supplemented with 10% fetal bovine serum (FBS) and 1% penicillin-streptomycin. Varying concentrations of cyclic peptide (0-25 μM) were added to the each well and the cells were incubated at 37° C. with 5% CO2 for 72 hours. Ten μL of a MTT stock solution (Roche) was added into each well. The plate was incubated at 37° C. for 4 h. Then 100 μL of SDS-HCl solubilizing buffer was added into each well, and the resulting solution was mixed thoroughly. The plate was incubated at 37° C. overnight. The absorbance of the formazan product was measured at 570 nm using a Molecular Devices Spectramax M5 plate reader. Each experiment was performed in triplicates and the cells without any peptide added were treated as control.

T2 sequence (P01116 1-185 isoform P01116-2 G12V): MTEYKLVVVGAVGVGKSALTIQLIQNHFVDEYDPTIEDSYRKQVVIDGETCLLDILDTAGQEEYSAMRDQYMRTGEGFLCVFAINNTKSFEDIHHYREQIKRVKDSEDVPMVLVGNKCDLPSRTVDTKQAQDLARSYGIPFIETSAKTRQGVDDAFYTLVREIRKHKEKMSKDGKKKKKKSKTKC
T1 sequence (P01116 1-185 isoform P01116-2 G12V): as above

| Structure (SMILES) | Kd (K-Ras(G12V)) | increase of Ras binding affinity by substitution [1] | IC50 (H1299 lung cancer cells) | cell permeability / intracellular fluorescence (A549 lung cancer cells) | also measured |
| --- | --- | --- | --- | --- | --- |
| CC(C)C[C@H]1C(=O)N[C@@H](CCC(=O)N[C@@H](CCCCNC(=S)Nc2ccc3c(c2)C(=O)OC32c3ccc(O)cc3Oc3cc(O)ccc32)C(N)=O)C(=O)N[C@@H](CCCNC(=N)N)C(=O)N[C@@H](CCCNC(=N)N)C(=O)N[C@H](Cc2ccc3ccccc3c2)C(=O)N[C@@H](CCCNC(=N)N)C(=O)N[C@@H](Cc2ccc(F)cc2)C(=O)N[C@H](CC(N)=O)C(=O)N[C@H](Cc2ccc3ccccc3c2)C(=O)N1C [Cyclorasin 3A] (cyclo(E(Lys(5-FITC)NH2)RR[d2Nal]R[Phe(4-F)][dN][d2Nal][NMeL])) | 0.91 ± 0.23 µM | – | – | – | – |
| CCCC[C@H]1NC(=O)[C@H](Cc2ccc(F)cc2)NC(=O)[C@H](CCCNC(=N)N)NC(=O)[C@@H](Cc2ccc3ccccc3c2)NC(=O)[C@H](CCCNC(=N)N)NC(=O)[C@H](CCCNC(=N)N)NC(=O)[C@@H](CCCNC(=N)N)NC(=O)[C@@H](C(C)C)NC(=O)[C@H]([C@@H](C)O)NC(=O)[C@H](Cc2c[nH]c3ccccc23)NC(=O)[C@H](CCC(N)=O)NC1=O [Cyclorasin 9A14] (cyclo(WT[dV][dR]RR[d2Nal]R[Phe(4-F)][dNle]Q)) | – | 2 fold | 5.4 ± 2.4 µM | – | – |
| CCCC[C@H]1NC(=O)[C@H](Cc2ccc(F)cc2)NC(=O)[C@H](CCCNC(=N)N)NC(=O)[C@@H](Cc2ccc3ccccc3c2)NC(=O)[C@H](CCCNC(=N)N)NC(=O)[C@H](CCCNC(=N)N)NC(=O)[C@@H](CCCNC(=N)N)NC(=O)[C@@H](C)NC(=O)[C@H]([C@@H](C)O)NC(=O)[C@H](Cc2c[nH]c3ccccc23)NC(=O)[C@H](CCC(N)=O)NC1=O [Cyclorasin 9A6] (cyclo(WT[dA][dR]RR[d2Nal]R[Phe(4-F)][dNle]Q)) | – | – | – | improved cell permeability | higher potency than 9A1 against K-Ras ([1]; relative to 9A1): 3 fold |
| CC(C)[C@H]1NC(=O)[C@H](Cc2ccc(O)cc2)NC(=O)[C@H](CCCNC(=N)N)NC(=O)[C@H](Cc2ccc(F)cc2)NC(=O)[C@H](CCCNC(=N)N)NC(=O)[C@@H](Cc2ccc3ccccc3c2)NC(=O)[C@H](CCCNC(=N)N)NC(=O)[C@H](CCCNC(=N)N)NC(=O)[C@H](CCC(=O)N[C@@H](CCCCNC(=S)Nc2ccc3c(c2)C(=O)OC32c3ccc(O)cc3Oc3cc(O)ccc32)C(N)=O)NC(=O)[C@H](Cc2ccc(F)cc2)NC1=O [Cyclorasin 7A] (cyclo(E(Lys(5-FITC)NH2)RR[d2Nal]R[Phe(4-F)]RY[dV][Phe(4-F)])) | 0.88 ± 0.27 µM | – | – | – | – |
| CCCC[C@H]1NC(=O)[C@H](Cc2ccc(F)c(F)c2)NC(=O)[C@H](CCCNC(=N)N)NC(=O)[C@@H](Cc2ccc3ccccc3c2)NC(=O)[C@H](CCCNC(=N)N)NC(=O)[C@H](CCCNC(=N)N)NC(=O)[C@H](CCCNC(=N)N)NC(=O)[C@@H](C)NC(=O)[C@H]([C@@H](C)O)NC(=O)[C@H](Cc2c[nH]c3ccccc23)NC(=O)[C@H](CCC(N)=O)NC1=O [Cyclorasin 9A43] (cyclo(WT[dA]RRR[d2Nal]R[Phe(3,4-F2)][dNle]Q)) | – | 2 fold | 6.9 ± 0.8 µM | – | – |
| C[C@H]1NC(=O)[C@H](CCCNC(=N)N)NC(=O)[C@H](Cc2c[nH]c3ccccc23)NC(=O)[C@H](CCCNC(=N)N)NC(=O)[C@H](Cc2ccc(F)cc2)NC(=O)[C@H](CCCNC(=N)N)NC(=O)[C@@H](Cc2ccc3ccccc3c2)NC(=O)[C@H](CCCNC(=N)N)NC(=O)[C@H](CCCNC(=N)N)NC(=O)[C@H](CCC(N)=O)NC1=O [Cyclorasin 12A, (Arg-Arg-nal-Arg-Fpa-Arg-Trp-Arg-ala-Gln)] (cyclo(RR[d2Nal]R[Phe(4-F)]RWR[dA]Q)) | – | – | – | cell permeable | anti-proliferative activity against lung cancer cells (in words) (H1299 lung cancer cells): weak anti-proliferative activity |
| CCCC[C@H]1NC(=O)[C@H](Cc2ccc(F)cc2)NC(=O)[C@H](CCCNC(=N)N)NC(=O)[C@@H](Cc2ccc3ccccc3c2)NC(=O)[C@H](CCCNC(=N)N)NC(=O)[C@H](CCCNC(=N)N)NC(=O)[C@H](CCC(=O)N[C@@H](CCCCNC(=S)Nc2ccc3c(c2)C(=O)OC32c3ccc(O)cc3Oc3cc(O)ccc32)C(N)=O)NC(=O)[C@@H](C)NC(=O)[C@H]([C@@H](C)O)NC(=O)[C@H](Cc2c[nH]c3ccccc23)NC(=O)[C@@H](CO)NC1=O [Cyclorasin 9A, (Arg-Arg-nal-Arg-Fpa-nle-ser-Trp-Thr-ala-Gln)] (cyclo(RR[d2Nal]R[Phe(4-F)][dNle][dS]WT[dA]E(Lys(5-FITC)NH2))) | – | – | 18 ± 4 µM | cell permeable | anti-proliferative activity against lung cancer cells (in words) (H1299 lung cancer cells): weak anti-proliferative activity |
| CC[C@@H]1NC(=O)[C@@H](Cc2ccccc2)NC(=O)[C@H](Cc2ccc(F)cc2)NC(=O)[C@@H](CC(N)=O)NC(=O)[C@H](Cc2ccc(F)cc2)NC(=O)[C@H](CCCNC(=N)N)NC(=O)[C@@H](Cc2ccc3ccccc3c2)NC(=O)[C@H](CCCNC(=N)N)NC(=O)[C@H](CCCNC(=N)N)NC(=O)[C@H](CCC(=O)N[C@@H](CCCCNC(=S)Nc2ccc3c(c2)C(=O)OC32c3ccc(O)cc3Oc3cc(O)ccc32)C(N)=O)NC1=O [Cyclorasin 13A] (cyclo([Abu]E(Lys(5-FITC)NH2)RR[d2Nal]R[Phe(4-F)][dN][Phe(4-F)][dF])) | 1 ± 0.2 µM | – | – | – | – |
| CCCC[C@H]1NC(=O)[C@H](Cc2ccc(F)cc2)NC(=O)[C@H](CCCNC(=N)N)NC(=O)[C@@H](Cc2ccc3ccccc3c2)NC(=O)[C@H](CCCNC(=N)N)NC(=O)[C@H](CCCNC(=N)N)NC(=O)[C@@H](CCCNC(=N)N)NC(=O)[C@@H](C)NC(=O)[C@H](C(C)(C)C)NC(=O)[C@H](Cc2c[nH]c3ccccc23)NC(=O)[C@H](CCC(N)=O)NC1=O [Cyclorasin 9A16] (cyclo(W[Tle][dA][dR]RR[d2Nal]R[Phe(4-F)][dNle]Q)) | – | 2 fold | 3.5 ± 0.6 µM | – | – |
